Data: paper PMC9977294, “A parasitic fungus employs mutated eIF4A to survive on rocaglate-synthesizing Aglaia plants” (eLife, 2023)
Where “and” joins values, the source holds several entries; their conditions need not be identical. Equal entries are not always repeated.

How the values were obtained:
[1] = molecular target: T1, H. sapiens eIF4A1 Phe163Gly (Homo sapiens, UniProt P60842, F163G); experiment: Fluorescence polarization assay, FAM-labeled [AG]10 RNA and recombinant eIF4A; assay type: binding
T1 construct: His tag (N); made in house; host or cells: E. coli BL21 Star (DE3)
Procedure: (§1) The fluorescence polarization assay was performed as previously described ([Chen et al., 2021]). […] After incubation at room temperature for 30 min, the mixture was transferred to a black 384-well microplate (Corning), and the fluorescence polarization was measured by an Infinite F-200 PRO (Tecan). Under ADP + Pi conditions, 1 mM ADP (Fujifilm Wako Chemicals) and 1 mM Na2HPO4 were used as substitutes for AMP-PNP. The data were fitted to the Hill equation to calculate Kd values and visualized by Igor Pro v8.01 (WaveMetrics).

[2] = molecular target: T2, H. sapiens eIF4A1 Phe163His (Homo sapiens, UniProt P60842, F163H); experiment: as above; assay type: binding; conditions: RocA 50 µM
T2 construct: His tag (N); made in house; host or cells: E. coli BL21 Star (DE3)
Procedure: as §1

[3] = [AG]10, ADP + Pi, RocA 50 µM, protein 0.01 μM
[4] = [AG]10, ADP + Pi, RocA 50 µM, protein 0.05 μM
[5] = [AG]10, ADP + Pi, RocA 50 µM, protein 0.075 μM
[6] = [AG]10, ADP + Pi, RocA 50 µM, protein 0.1 μM
[7] = [AG]10, ADP + Pi, RocA 50 µM, protein 0.5 μM
[8] = [AG]10, ADP + Pi, RocA 50 µM, protein 0.75 μM
[9] = [AG]10, ADP + Pi, RocA 50 µM, protein 1 μM
[10] = [AG]10, ADP + Pi, RocA 50 µM, protein 5 μM
[11] = [AG]10, ADP + Pi, RocA 50 µM, protein 7.5 μM
[12] = [AG]10, ADP + Pi, RocA 50 µM, protein 10 μM
[13] = [AG]10, ADP + Pi, RocA 50 µM, protein 25 μM
[14] = [AG]10, ADP + Pi, RocA 50 µM, protein 50 μM
[15] = [AG]10 RNA, AMP-PNP, RocA, protein concentration 0.01 μM
[16] = [AG]10 RNA, AMP-PNP, RocA, protein concentration 0.05 μM
[17] = [AG]10 RNA, AMP-PNP, RocA, protein concentration 0.075 μM
[18] = [AG]10 RNA, AMP-PNP, RocA, protein concentration 0.1 μM
[19] = [AG]10 RNA, AMP-PNP, RocA, protein concentration 0.5 μM
[20] = [AG]10 RNA, AMP-PNP, RocA, protein concentration 0.75 μM
[21] = [AG]10 RNA, AMP-PNP, RocA, protein concentration 1 μM
[22] = [AG]10 RNA, AMP-PNP, RocA, protein concentration 5 μM
[23] = [AG]10 RNA, AMP-PNP, RocA, protein concentration 7.5 μM
[24] = [AG]10 RNA, AMP-PNP, RocA, protein concentration 10 μM
[25] = [AG]10 RNA, AMP-PNP, RocA, protein concentration 25 μM
[26] = [AG]10 RNA, AMP-PNP, RocA, protein concentration 50 μM

T2 sequence (P60842 whole entry F163H): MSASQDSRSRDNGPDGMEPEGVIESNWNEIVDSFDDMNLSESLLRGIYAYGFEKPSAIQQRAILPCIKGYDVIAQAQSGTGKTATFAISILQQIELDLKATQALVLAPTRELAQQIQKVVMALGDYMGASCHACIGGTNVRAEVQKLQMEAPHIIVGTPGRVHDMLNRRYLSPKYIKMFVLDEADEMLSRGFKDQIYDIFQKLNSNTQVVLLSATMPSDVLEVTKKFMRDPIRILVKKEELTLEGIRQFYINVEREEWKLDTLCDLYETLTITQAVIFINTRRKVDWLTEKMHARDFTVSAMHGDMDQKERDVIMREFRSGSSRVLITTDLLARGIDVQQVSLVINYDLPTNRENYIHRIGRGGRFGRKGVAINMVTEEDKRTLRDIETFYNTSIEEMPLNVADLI
T1 sequence (P60842 whole entry F163G): as the sequence (P60842 whole entry F163H) above, with H163G counted along it

With `COc1ccc([C@@]23Oc4cc(OC)cc(OC)c4[C@]2(O)[C@H](O)[C@H](C(=O)N(C)C)[C@H]3c2ccccc2)cc1` [RocA, rocaglamide A] the “fluorescence polarization, Mean” value [1, 3] was 0.04918, the “fluorescence polarization, replicates” value [1, 3] was 0.1421 and 0.05191 and -0.04645 and the “fluorescence polarization, Mean” value [1, 4] was 0.02732. The “fluorescence polarization, replicates” value [1, 4] was 0.2322 and -0.03005 and -0.1202, the “fluorescence polarization, Mean” value [1, 5] was -0.02459 and the “fluorescence polarization, replicates” value [1, 5] was 0.06011 and -0.02186 and -0.112. The “fluorescence polarization, Mean” value [1, 6] was -0.01913, the “fluorescence polarization, replicates” value [1, 6] was -0.03005 and -0.01366 (2×) and the “fluorescence polarization, Mean” value [1, 7] was -0.02459. The “fluorescence polarization, replicates” value [1, 7] was 0.0765 and 0.04372 and -0.194, the “fluorescence polarization, Mean” value [1, 8] was -0.02459 and the “fluorescence polarization, replicates” value [1, 8] was 0.1831 and -0.05465 and -0.2022. The “fluorescence polarization, Mean” value [1, 9] was -0.01913, the “fluorescence polarization, replicates” value [1, 9] was 0.1093 and -0.06284 and -0.1038 and the “fluorescence polarization, Mean” value [1, 10] was 0.224. For the same compound, the “fluorescence polarization, replicates” value [1, 10] was 0.3634 and 0.224 and 0.0847, the “fluorescence polarization, Mean” value [1, 11] was 0.1721 and the “fluorescence polarization, replicates” value [1, 11] was 0.3798 and 0.03552 and 0.1011. The “fluorescence polarization, Mean” value [1, 12] was 0.276, the “fluorescence polarization, replicates” value [1, 12] was 0.3962 and 0.1585 and 0.2732 and the “fluorescence polarization, Mean” value [1, 13] was 0.5137. For the same compound, the “fluorescence polarization, replicates” value [1, 13] was 0.7404 and 0.5273 and 0.2732, the “fluorescence polarization, Mean” value [1, 14] was 0.582 and the “fluorescence polarization, replicates” value [1, 14] was 0.7568 and 0.5437 and 0.4454. The “Fluorescence polarization, Replicate 1-3” value [1, 15] was 0.04918 and -0.08197 and -0.1475, the “fluorescence polarization, Mean” value [1, 15] was -0.06011 and the “Fluorescence polarization, Replicate 1-3” value [1, 16] was 0.1311 and -0.09016 and -0.09836. For the same compound, the “fluorescence polarization, Mean” value [1, 16] was -0.01913, the “Fluorescence polarization, Replicate 1-3” value [1, 17] was -0.04098 and -0.1393 and -0.09836 and the “fluorescence polarization, Mean” value [1, 17] was -0.0929. For the same compound, the “Fluorescence polarization, Replicate 1-3” value [1, 18] was 0.07377 and 0.02459 and -0.06557, the “fluorescence polarization, Mean” value [1, 18] was 0.01093 and the “Fluorescence polarization, Replicate 1-3” value [1, 19] was 0.5984 and 0.4918 and 0.4016. For the same compound, the “fluorescence polarization, Mean” value [1, 19] was 0.4973, the “Fluorescence polarization, Replicate 1-3” value [1, 20] was 0.4508 and 0.2049 and 0.1148 and the “fluorescence polarization, Mean” value [1, 20] was 0.2568. The “Fluorescence polarization, Replicate 1-3” value [1, 21] was 0.5082 and 0.3689 (2×), the “fluorescence polarization, Mean” value [1, 21] was 0.4153 and the “Fluorescence polarization, Replicate 1-3” value [1, 22] was 0.7131 and 0.7705 and 0.7541. For the same compound, the “fluorescence polarization, Mean” value [1, 22] was 0.7459, the “Fluorescence polarization, Replicate 1-3” value [1, 23] was 0.6393 and 0.6721 and 0.5902 and the “fluorescence polarization, Mean” value [1, 23] was 0.6339. The “Fluorescence polarization, Replicate 1-3” value [1, 24] was 0.7951 and 0.7459 and 0.7705, the “fluorescence polarization, Mean” value [1, 24] was 0.7705 and the “Fluorescence polarization, Replicate 1-3” value [1, 25] was 0.7623 and 0.7213 and 0.6639. For the same compound, the “fluorescence polarization, Mean” value [1, 25] was 0.7158, the “Fluorescence polarization, Replicate 1-3” value [1, 26] was 0.9016 and 0.7623 and 0.7787 and the “fluorescence polarization, Mean” value [1, 26] was 0.8142. For the same compound, the “fluorescence polarization, Mean” value ([2]; ADP + Pi, protein 0.01 μM) was -0.03005, the “fluorescence polarization, replicates” value ([2]; ADP + Pi, protein 0.01 μM) was 0.07104 and -0.06011 and -0.1011 and the “fluorescence polarization, Mean” value ([2]; ADP + Pi, protein 0.05 μM) was -0.008197. For the same compound, the “fluorescence polarization, replicates” value ([2]; ADP + Pi, protein 0.05 μM) was 0.03005 and 0.005464 and -0.06011, the “fluorescence polarization, Mean” value ([2]; ADP + Pi, protein 0.075 μM) was 0.02186 and the “fluorescence polarization, replicates” value ([2]; ADP + Pi, protein 0.075 μM) was 0.03005 and 0.01366 and 0.02186. The “fluorescence polarization, Mean” value ([2]; ADP + Pi, protein 0.1 μM) was 0.01639, the “fluorescence polarization, replicates” value ([2]; ADP + Pi, protein 0.1 μM) was 0.04645 and -0.01913 and 0.02186 and the “fluorescence polarization, Mean” value ([2]; ADP + Pi, protein 0.5 μM) was 0.08197. For the same compound, the “fluorescence polarization, replicates” value ([2]; ADP + Pi, protein 0.5 μM) was 0.04645 and 0.1038 and 0.09563, the “fluorescence polarization, Mean” value ([2]; ADP + Pi, protein 0.75 μM) was 0.06831 and the “fluorescence polarization, replicates” value ([2]; ADP + Pi, protein 0.75 μM) was 0.1448 and -0.01913 and 0.07923. For the same compound, the “fluorescence polarization, Mean” value ([2]; ADP + Pi, protein 1 μM) was 0.1694, the “fluorescence polarization, replicates” value ([2]; ADP + Pi, protein 1 μM) was 0.2514 and 0.1694 and 0.08743 and the “fluorescence polarization, Mean” value ([2]; ADP + Pi, protein 5 μM) was 0.3306. For the same compound, the “fluorescence polarization, replicates” value ([2]; ADP + Pi, protein 5 μM) was 0.3415 and 0.3661 and 0.2842, the “fluorescence polarization, Mean” value ([2]; ADP + Pi, protein 7.5 μM) was 0.4153 and the “fluorescence polarization, replicates” value ([2]; ADP + Pi, protein 7.5 μM) was 0.3579 and 0.4973 and 0.3907. For the same compound, the “fluorescence polarization, Mean” value ([2]; ADP + Pi, protein 10 μM) was 0.5765, the “fluorescence polarization, replicates” value ([2]; ADP + Pi, protein 10 μM) was 0.694 and 0.5301 and 0.5055 and the “fluorescence polarization, Mean” value ([2]; ADP + Pi, protein 25 μM) was 0.6311. The “fluorescence polarization, replicates” value ([2]; ADP + Pi, protein 25 μM) was 0.6366 and 0.7022 and 0.5546, the “fluorescence polarization, Mean” value ([2]; ADP + Pi, protein 50 μM) was 0.8251 and the “fluorescence polarization, replicates” value ([2]; ADP + Pi, protein 50 μM) was 0.7268 and 0.8579 and 0.8907. The “fluorescence polarization, Mean” value ([2]; AMP-PNP, protein 0.01 μM) was -0.005464, the “fluorescence polarization, Mean” value ([2]; AMP-PNP, protein 0.05 μM) was 0.0847 and the “fluorescence polarization, Mean” value ([2]; AMP-PNP, protein 0.075 μM) was 0.1721. The “fluorescence polarization, Mean” value ([2]; AMP-PNP, protein 0.1 μM) was 0.3169, the “fluorescence polarization, replicates” value ([2]; AMP-PNP, protein 0.1 μM) was 0.2705 and 0.3525 and 0.3279 and the “fluorescence polarization, Mean” value ([2]; AMP-PNP, protein 0.5 μM) was 0.7951. The “fluorescence polarization, replicates” value ([2]; AMP-PNP, protein 0.5 μM) was 0.7705 and 0.7869 and 0.8279, the “fluorescence polarization, Mean” value ([2]; AMP-PNP, protein 0.75 μM) was 0.8306 and the “fluorescence polarization, replicates” value ([2]; AMP-PNP, protein 0.75 μM) was 0.8361. The “fluorescence polarization, Mean” value ([2]; AMP-PNP, protein 1 μM) was 0.9317, the “fluorescence polarization, Mean” value ([2]; AMP-PNP, protein 5 μM) was 0.9536 and the “fluorescence polarization, Mean” value ([2]; AMP-PNP, protein 7.5 μM) was 0.8907. The “fluorescence polarization, Mean” value ([2]; AMP-PNP, protein 10 μM) was 0.9481, the “fluorescence polarization, Mean” value ([2]; AMP-PNP, protein 25 μM) was 0.9481 and the “fluorescence polarization, Mean” value ([2]; AMP-PNP, protein 50 μM) was 1.
